Reference: PMC10424187, “Structure-Guided Design and Synthesis of a Pyridazinone Series of Trypanosoma cruzi Proteasome Inhibitors” (Journal of Medicinal Chemistry, 2023)
≈ marks a conversion by molar mass, not a printed value. Where “and” joins values, the source holds several entries; their conditions need not be identical. Equal values may be shown once.

How the values were obtained:
[1] = test system: T. cruzi; assay: T. cruzi in vitro washout assay; assay type: cell-based, Trypanosoma cruzi
Description: T. cruzi in vitro washout assay
This assay was run as previously reported:
Marco M.; Miles T.J.; Naylor C.; Osuna-Cabello M.; Paterson C.; Read K.D.; Pinto E.G.; Riley
J.; Scullion P.; Shishikura Y.; Simeons F.; Stojanovski L.; Svensen N.; Thomas J.; Wyatt P.G.;
disubstituted piperazines for the treatment of Chagas disease. […]

[2] = test system: T. cruzi; assay: Chronic mouse efficacy model of Chagas disease; assay type: in vivo, Balb/c mice
Description: All regulated procedures on living animals were carried out under the authority of a project license issued by the Home Office under the Animals (Scientific Procedures) Act 1986, as amended in 2012 (and in compliance with EU Directive EU/2010/63). Infected animals had access to food and water ad libitum and were housed under a 12-hour light/dark photoperiod.
Animals used in these experiments were female NMRI and Balb/c mice (Harlan, UK). […]
In vivo Mouse Efficacy Studies.
The T. cruzi chronic efficacy study was run in Balb/c mice as previously described:
M.D. Lewis, A. Fortes Francisco, M.C. Taylor, J.M. Kelly, A new experimental model for assessing drug efficacy against Trypanosoma cruzi infection based on highly sensitive in vivo imaging, J. Biomol. Screen 20 (1) (2015) 36–43

[3] = molecular target: T. cruzi proteasome (Trypanosoma cruzi, UniProt V5BU39+V5C017); assay: T. cruzi proteasome assay (chymotrypsin-like activity, Suc-LLVY-Rho-110-DPro); settings: for Tc Prot Hill Slope / Tc Prot Max Response (%): individual replicate; for Emax: read-out: Tc Prot Max Response (%), individual replicate
T. cruzi proteasome, sequence (V5BU39 entry or part of it): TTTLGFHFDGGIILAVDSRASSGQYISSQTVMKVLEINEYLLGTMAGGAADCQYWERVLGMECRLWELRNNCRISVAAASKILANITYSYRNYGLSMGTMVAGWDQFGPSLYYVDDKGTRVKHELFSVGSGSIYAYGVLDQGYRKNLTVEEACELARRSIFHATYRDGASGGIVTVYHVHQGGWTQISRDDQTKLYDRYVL
T. cruzi proteasome, sequence (V5C017 entry or part of it): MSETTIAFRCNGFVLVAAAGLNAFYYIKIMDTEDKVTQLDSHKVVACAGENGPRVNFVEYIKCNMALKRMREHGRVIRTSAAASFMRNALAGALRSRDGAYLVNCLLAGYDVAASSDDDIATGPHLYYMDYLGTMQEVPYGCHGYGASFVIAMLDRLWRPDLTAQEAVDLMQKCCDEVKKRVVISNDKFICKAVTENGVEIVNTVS
Description: T. cruzi and human proteasome assays
(§2) The T. cruzi proteasome was partially purified as described in the above reference and Human
(§3) 20S proteasome was purchased from Boston Biochem (now R&D Systems, catalogue number
(§4) a Tecan Fluent to titrate over 11 points in Labcyte Echo-compatible Greiner Bio-One 384 well
(§5) polypropylene microplates. Subsequently, 100 nl of test compound titrations were transferred
(§6) to black Greiner Bio-One low volume 384 well microplates using a Labcyte Echo acoustic
(§7) 50 mM HEPES pH 7.5, 150 mM sodium chloride, 5% Glycerol, 1 mM dithiothreitol, 1 mM
(§8) CHAPS in deionised, filtered water (all chemicals purchased from Sigma Aldrich). Human 20S
(§9) These enzyme solutions were prepared immediately prior to assay initiation and stored at 4 °C
(§10) To monitor the Chymotrypsin-like activity of the T. cruzi and Human 20S proteasome proteins
(§11) a self-quenched, Rhodamine 110-labelled peptide with the sequence Suc-LLVY-Rho-110-
(§12) DPro was used (prepared by Cambridge Research Biochemicals. Suc is succinyl, while DPro
(§13) refers to ᴅ-proline). The peptide was initially prepared from solid as a 10 mM solution in 100%
(§14) DMSO and stored at -20 °C. Prior to use in the assay, an aliquot was thawed at room
(§15) to twofold Km. For use with the Human 20S proteasome, the Suc-LLVY-Rho-110-DPro
(§16) peptide was diluted in assay buffer to a concentration equivalent to twofold Km, which for this
(§17) enzyme was 2 μM. The peptide solutions were protected from light and stored at 4 °C before
(§18) A Multidrop Micro (Thermo Fisher), using a low volume dispense cassette, was used to add
(§19) the assay solutions to the test compounds in the low volume 384-well microplates. Prior to
(§20) addition of proteasome solution, 5 μl of assay buffer was added to one column (containing 100
(§21) nl, 100% DMSO) to act as no enzyme control to mimic full inhibition. Subsequently, 5 μl of
(§22) proteasome solution (either T. cruzi or Human 20S) was added to all wells on the test
(§23) microplate apart from the column containing 5 μl assay buffer. The microplate was then spun
(§24) using a suitable bench top centrifuge for 1 minute at 1000 rpm, before incubation at room
(§25) Following the initial incubation, 5 μl of substrate solution was then added to all wells on the
(§26) test microplate using a Multidrop Micro equipped with a discrete low volume dispense cassette.
(§27) The test microplates were then spun for 10 seconds at 1000 rpm before being rapidly moved to
(§28) a multi-mode microplate reader, capable of monitoring fluorescence intensity. The microplate
(§29) reader used for these studies was a Tecan M1000 Pro, equipped with quad monochromators.
(§30) 530 ± 5 nm. A series of fluorescence intensity measurements were taken every 30 seconds for
(§31) Subsequently, the fluorescence intensity measurements (relative fluorescence units, RFU) were
(§32) fit to a simple linear regression model (y = A + Bx, where y refers to the fluorescence intensity
(§33) and x refers to the time in seconds) to determine the initial rate of reaction. The initial rate for
(§34) every compound concentration tested was then fit a 4-parameter logistic model: y = (A + (B -
(§35) A)) / (1 + (x / C)D), where y refers to the assay response, x refers to the inhibitor concentration,
(§36) A and B are the range values (minimum and maximum, respectively), C is the IC50 value and
(§37) D is the slope. Potency values were then reported as pIC50, which is the negative log of the
(§38) IC50 (on a molar scale). Data analysis was automated and carried out using the ActivityBase

[4] = molecular target: Human 20S proteasome (Homo sapiens, UniProt P28074+P49721); assay: human proteasome assay (chymotrypsin-like activity, Suc-LLVY-Rho-110-DPro); settings: for Emax: read-out: Hs Prot Max Response (%), individual replicate
Description: T. cruzi and human proteasome assays
as §2, §3, §4, §5, §6, §7, §8, §9, §10, §11, §12, §13, §14, §15, §16, §17, §18, §19, §20, §21, §22, §23, §24, §25, §26, §27, §28, §29, §30, §31, §32, §33, §34, §35, §36, §37, §38

[5] = Mouse microsomal intrinsic clearance; assay type: in vitro ADME; settings: mouse liver microsomes, scaling 52.5 mg microsomal protein/g liver
Description: Mouse microsomal intrinsic clearance.
This assay was conducted as previously described:
J.; Reid, I. H.; Hill, A. P.;
(§1) were prepared by adding a volume (5 µL) of the 10 mM solution to a volume (195 µL) of […]

[6] = test system: intracellular T. cruzi X10/7 A1 amastigotes
[7] = ChromLogD; assay type: physicochemical; settings: pH 7.4; read-out: Chrom LogDpH7.4
Description: Chrom LogD was measured as previously described:
solubility and hydrophobicity. Drug Discov. Today 2010, 15, 648−655. […]

[8] = test system: host VERO cells
[9] = Kinetic aqueous solubility (UHPLC, PBS pH 7.4); assay type: physicochemical; settings: phosphate buffered saline, UHPLC UV/MS
Description: This assay was conducted as previously described: […]
as §1
format). Samples were then drawn through the filter using vacuum. The filtrate from the above […]
formic acid gradient elution. The UHPLC parameters are shown below:
Gradient program: Initial: 98% A, 2% B
Re-equilibration time: 0.6 min
Autosampler temperature: 25°C
Detector wavelength: 254 nm

[10] = T. cruzi Prot pIC50, mean of at least three independent replicates
[11] = Tc Prot pIC50, individual replicate
[12] = mean of at least three independent replicates

O=C(Cn1ccnc1[N+](=O)[O-])NCc1ccccc1 [BNZ, benznidazole, reference compound]
relapses, days post washout ([1]; 16-day treatment at 25-fold EC50, two replicates each): 31 days and 35 days | parasites relapsing on day ([1]; 8 days of treatment, 50-fold EC50): 21 days | cure ([2]; 100 mg/kg for 20 days, u.i.d): cured all mice | effect on parasite levels ([2]; dosed at 100 mg/kg): reduced parasite levels below detectable limits

O=C(Nc1cccc(C(=O)NC2CC2)c1)c1ccc(=O)n(Cc2ccccc2)c1 [Compound 8, 1-Benzyl-N-(3-(cyclopropylcarbamoyl)phenyl)-6-oxo-1,6-dihydropyridine-3-carboxamide]
IC50 [3, 10]: 1580 nM | IC50 [3, 11]: 2510 nM and 2000 nM and 794 nM | Tc Prot Hill Slope [3]: 1.0 and 0.9 | Tc Prot Max Response (%) [3]: 85% and 77% | Emax [3]: 80% | Hs Prot Max Response (%) ([4]; individual replicate): 12% and 6% | Hs Prot pIC50 ([4]; individual replicate): < 4 | Hs Prot pIC50 [4, 12]: <4 | Emax [4]: 10% | Mouse CLi [5]: 0.8 mL/min/g | EC50 [6]: > 50100 nM | chromatographic logD [7]: 3.3 | EC50 [8]: > 50100 nM and 39800 nM and 25100 nM

O=C(Nc1ccc(F)c(C(=O)NC2CC2)c1)c1ccc(=O)n(Cc2ccccc2)n1 [Compound 9, 1-Benzyl-N-(3-(cyclopropylcarbamoyl)-4-fluorophenyl)-6-oxo-1,6-dihydropyridazine-3-carboxamide]
IC50 [3, 10]: 158 nM | IC50 [3, 11]: 251 nM and 200 nM and 100 nM | Tc Prot Hill Slope [3]: 1.0 and 0.9 | Tc Prot Max Response (%) [3]: 83% and 82% | Emax [3]: 71% | Hs Prot Max Response (%) ([4]; individual replicate): 8.53% and 11% and 6% | Hs Prot pIC50 ([4]; individual replicate): < 4 | Hs Prot pIC50 [4, 12]: <4 | Emax [4]: 7% | Mouse CLi [5]: 6.7 mL/min/g | EC50 [6]: 2000 nM | Emax [6]: 94% and 90% and 82% and 88% and 89% | chromatographic logD [7]: 4.2 | EC50 [8]: > 50100 nM | Emax [8]: 29% | solubility at 24 h [9]: 218 µM (≈ 88.6 µg/mL)

O=C(NC1CC1)c1ccc(F)c(NC(=O)c2ccc(=O)n(Cc3ccccc3)n2)c1 [Compound 10, 1-Benzyl-N-(5-(cyclopropylcarbamoyl)-2-fluorophenyl)-6-oxo-1,6-dihydropyridazine-3-carboxamide]
IC50 [3, 10]: 1580 nM | IC50 [3, 11]: > 100000 nM | Tc Prot Hill Slope [3]: 1.2 | Tc Prot Max Response (%) [3]: 35% and 20% and 57% | Hs Prot Max Response (%) ([4]; individual replicate): 17% and 3% and 2.27% | Hs Prot pIC50 ([4]; individual replicate): < 4 | Hs Prot pIC50 [4, 12]: <4 | Mouse CLi [5]: 3.1 mL/min/g | EC50 [6]: > 50100 nM | chromatographic logD [7]: 4.1 | EC50 [8]: > 50100 nM | solubility at 24 h [9]: 1.5 µM (≈ 0.61 µg/mL)

O=C(Nc1ccc(F)c(C(=O)NC2CC2)c1)c1ccc(=O)n(CC2CCCCC2)n1 [Compound 11, 1-(Cyclohexylmethyl)-N-(3-(cyclopropylcarbamoyl)-4-fluorophenyl)-6-oxo-1,6-dihydropyridazine-3-carboxamide]
IC50 [3, 10]: 398 nM | IC50 [3, 11]: 501 nM and 316 nM | Tc Prot Hill Slope [3]: 0.9 and 0.85 | Tc Prot Max Response (%) [3]: 87% | Emax [3]: 78% | Hs Prot Max Response (%) ([4]; individual replicate): 13% and 33% | Hs Prot pIC50 ([4]; individual replicate): < 4 | Hs Prot pIC50 [4, 12]: <4 | Mouse CLi [5]: 7.3 mL/min/g | EC50 [6]: 7940 nM and 10000 nM and 5010 nM and 6310 nM | Emax [6]: 84% and 78% and 86% and 88% | chromatographic logD [7]: 5.3 | EC50 [8]: > 50100 nM | Emax [8]: 11%

COc1ccc(Cn2nc(C(=O)Nc3ccc(F)c(C(=O)NC4CC4)c3)ccc2=O)cc1 [Compound 12, N-[3-(Cyclopropylcarbamoyl)-4-fluorophenyl]-1-[(4-methoxyphenyl)methyl]-6-oxo-pyridazine-3-carboxamide]
IC50 [3, 10]: 31.6 nM | IC50 [3, 11]: 39.8 nM and 25.1 nM | Tc Prot Hill Slope [3]: 0.95 and 0.9 | Tc Prot Max Response (%) [3]: 80% and 85% | Emax [3]: 67% | Hs Prot Max Response (%) ([4]; individual replicate): 8% and 12% and 18% | Hs Prot pIC50 ([4]; individual replicate): < 4 | Hs Prot pIC50 [4, 12]: <4 | Mouse CLi [5]: 2.4 mL/min/g | EC50 [6]: 398 nM and 316 nM and 501 nM | Emax [6]: 56% and 99% and 66% | chromatographic logD [7]: 4.2 | solubility at 24 h [9]: 83 µM (≈ 36.2 µg/mL)
